Reference: US12233081B2, “Hygromycin a compounds and methods of treating spirochete diseases” (priority 2018, dated 2025)

Assays:
B. burgdorferi N40 = assay: C3H mice infected with Borrelia burgdorferi, cell counts in skin tissue; format: in vivo; conditions: 156 mg/kg IP injection, 5 days of dosing
Experimental: C3H mice (Charles River Laboratories) are used in classical Lyme disease infection model. Mice were rested for more than 1 day after delivery before infected with 10^5 B. burgdorferi N40 cells by subcutaneous injection. Infection was established for 3 weeks. 100 μl of saline, ceftriaxone or hygromycin A was administered by IP injection. Compounds of the invention can also be tested for efficacy as described herein.
Ceftriaxone (USP grade) was purchased from Sigma-Aldrich. Saline was purchased from Baxter Healthcare. Ceftriaxone powder was dissolved into saline to 31.2 mg/ml solution. Hygromycin A stock solution at 200 mg/ml was diluted into saline to make 50 mg/ml (250 mg/kg), 15 mg/ml (75 mg/kg), 14 mg/ml (70 mg/kg), 10 mg/ml (50 mg/kg) and 5 mg/ml (25 mg/kg) solutions.
In the B. burgdorferi mice infection model, skin is the tissue with highest bacterial burden. After sacrificing mice 2 days after 5 days of dosing, we took 100 mg skin tissue from mouse ear, homogenized the tissue and plated on BSK-II semi-agar plates for cell number counts. No colony appearing on the plates is considered as clearance of the infection.

gut microbiome = gut microbiome 16S rRNA sequencing of stool of infected, treated mice; conditions: subcutaneous 156 mg/kg every 12 hours for 5 days

CO/N=C(\C(=O)N[C@@H]1C(=O)N2C(C(=O)O)=C(CSc3nc(=O)c(=O)[nH]n3C)CS[C@H]12)c1csc(N)n1 [Ceftriaxone]
# of B. burgdorferi cells in 100 mg skin tissue (B. burgdorferi N40): <1 | Acholeplasmataceae change in percent relative abundance (gut microbiome): 0.213% | Aerococcaceae change in percent relative abundance (gut microbiome): 0.000% | Anaerolineaceae change in percent relative abundance (gut microbiome): 0.000% | Anaeroplasmataceae change in percent relative abundance (gut microbiome): 0.000% | Anaplasmataceae change in percent relative abundance (gut microbiome): 0.001% | Aspergillaceae change in percent relative abundance (gut microbiome): 0.000% | Asteraceae change in percent relative abundance (gut microbiome): 0.011% | Bacillaceae change in percent relative abundance (gut microbiome): 0.055% | Bacillales change in percent relative abundance (gut microbiome): −0.174% | Bacteroidaceae change in percent relative abundance (gut microbiome): −26.593% | Bifidobacteriaceae change in percent relative abundance (gut microbiome): 0.000% | Brucellaceae change in percent relative abundance (gut microbiome): 0.000% | Camobacteriaceae change in percent relative abundance (gut microbiome): 0.000% | Chitinophagaceae change in percent relative abundance (gut microbiome): 0.000% | Christensenellaceae change in percent relative abundance (gut microbiome): 0.000% | Clostridiaceae change in percent relative abundance (gut microbiome): −10.423% | Clostridiales change in percent relative abundance (gut microbiome): −0.174% | Clostridiales family xi. incertae sedis change in percent relative abundance (gut microbiome): −0.050% | Clostridiales family xiii. incertae sedis change in percent relative abundance (gut microbiome): −0.015% | Coriobacteriaceae change in percent relative abundance (gut microbiome): −0.049% | Corynebacteriaceae change in percent relative abundance (gut microbiome): 0.002% | Cytophagaceae change in percent relative abundance (gut microbiome): 0.000% | Deferribacteraceae change in percent relative abundance (gut microbiome): −1.344% | Defluviitaleaceae change in percent relative abundance (gut microbiome): −0.002% | Desulfobacteraceae change in percent relative abundance (gut microbiome): 0.000% | Enterobacteriaceae change in percent relative abundance (gut microbiome): −0.487% | Enterococcaceae change in percent relative abundance (gut microbiome): 77.7% | Erysipelotrichaceae change in percent relative abundance (gut microbiome): −1.012% | Eubacteriaceae change in percent relative abundance (gut microbiome): −3.445% | Fabaceae change in percent relative abundance (gut microbiome): 0.003% | Flavobacteriaceae change in percent relative abundance (gut microbiome): 0.000% | Francisellaceae change in percent relative abundance (gut microbiome): 0.000% | Fusobacteriaceae change in percent relative abundance (gut microbiome): 0.001% | Gammaproteobacteria change in percent relative abundance (gut microbiome): −0.008% | Gloeobacteraceae change in percent relative abundance (gut microbiome): −0.018% | Gracilibacteraceae change in percent relative abundance (gut microbiome): −0.087% | Halomonadaceae change in percent relative abundance (gut microbiome): 0.000% | Hylidae change in percent relative abundance (gut microbiome): 0.001% | Kopriimonadaceae change in percent relative abundance (gut microbiome): 0.000% | Lachnospiraceae change in percent relative abundance (gut microbiome): −11.193% | Lactobacillaceae change in percent relative abundance (gut microbiome): −1.712% | Leuconostocaceae change in percent relative abundance (gut microbiome): 0.015% | Methylobacteriaceae change in percent relative abundance (gut microbiome): 0.001% | Microbacteriaceae change in percent relative abundance (gut microbiome): 0.001% | Mucoraceae change in percent relative abundance (gut microbiome): 0.000% | Nostocaceae change in percent relative abundance (gut microbiome): 0.002% | Onagraceae change in percent relative abundance (gut microbiome): 0.000% | Oscillatoriales change in percent relative abundance (gut microbiome): 0.090% | Oscillospiraceae change in percent relative abundance (gut microbiome): −0.009% | Paenibacillaceae change in percent relative abundance (gut microbiome): 0.003% | Pasteurellaceae change in percent relative abundance (gut microbiome): 0.001% | Pelobacteraceae change in percent relative abundance (gut microbiome): 0.000% | Peptococcaceae change in percent relative abundance (gut microbiome): −0.602% | Peptoniphilaceae change in percent relative abundance (gut microbiome): 0.001% | Peptostreptococcaceae change in percent relative abundance (gut microbiome): −0.185% | Physalacriaceae change in percent relative abundance (gut microbiome): 0.000% | Poaceae change in percent relative abundance (gut microbiome): 0.820% | Polyangiaceae change in percent relative abundance (gut microbiome): 0.001% | Porphyromonadaceae change in percent relative abundance (gut microbiome): −24.493% | Prevotellaceae change in percent relative abundance (gut microbiome): −0.417% | Pseudomonadaceae change in percent relative abundance (gut microbiome): 0.002% | Rhizobiaceae change in percent relative abundance (gut microbiome): 0.001% | Rhodobacteraceae change in percent relative abundance (gut microbiome): 0.000% | Rikenellaceae change in percent relative abundance (gut microbiome): −6.750% | Ruminococcaceae change in percent relative abundance (gut microbiome): −2.217% | Sphingomonadaceae change in percent relative abundance (gut microbiome): 0.000% | Spirochaetaceae change in percent relative abundance (gut microbiome): −0.055% | Spiroplasmataceae change in percent relative abundance (gut microbiome): −0.051% | Staphylococcaceae change in percent relative abundance (gut microbiome): 0.047% | Streptococcaceae change in percent relative abundance (gut microbiome): 12.672% | Thermoanaerobacteraceae change in percent relative abundance (gut microbiome): −0.033% | Veillonellaceae change in percent relative abundance (gut microbiome): 0.000% | Verrucomicrobiaceae change in percent relative abundance (gut microbiome): −0.004% | Xanthomonadaceae change in percent relative abundance (gut microbiome): 0.001% | all other commensal taxa such as Bacteroidaceae and Lactobacillaceae (gut microbiome): depleted | mice with Enterococcaceae blooms (gut microbiome): 5/5 | Enterococcaceae change in percent relative abundance (gut microbiome; listed as Cef): 77.719%
